# Results published in ChEMBL document CHEMBL1201862, “PubChem BioAssay data set” (2004).
#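 Method: 48-hour compound exposure of cells in 96-well plates, five concentrations, linear interpolation of endpoints. At the GI50, growth is halved.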 Calls of active or inactive are those of the source. Rule as the data show it: active = GI50 up to about 1.1 µM and inactive = higher.
# Experiments:
# Test in all cases: inhibition of tumour cell growth, NCI panel, 48 h
# HOP-92 = tested on: HOP-92
# OVCAR-8 = tested on: OVCAR-8
# 786-0 = tested on: 786-0
# TK-10 = tested on: TK-10
# COLO 205 = tested on: COLO 205
# SF-539 = tested on: SF-539
# ACHN = tested on: ACHN
# OVCAR-3 = tested on: OVCAR-3
# U-251 = tested on: U-251
# DMS-273 = tested on: DMS-273
# OVCAR-4 = tested on: OVCAR-4
# SK-OV-3 = tested on: SK-OV-3
# SW-620 = tested on: SW-620
# HCT-116 = tested on: HCT-116
# A498 = tested on: A498
# MDA-N = tested on: MDA-N
# NCI/ADR-RES = tested on: NCI/ADR-RES
# MCF7 = tested on: MCF7
# PC-3 = tested on: PC-3
# BT-549 = tested on: BT-549
SMILES,GI50 (HOP-92),GI50 (OVCAR-8),GI50 (786-0),GI50 (TK-10),GI50 (COLO 205),GI50 (SF-539),GI50 (ACHN),GI50 (OVCAR-3),GI50 (U-251),GI50 (DMS-273),GI50 (OVCAR-4),GI50 (SK-OV-3),GI50 (SW-620),GI50 (HCT-116),GI50 (A498),GI50 (MDA-N),GI50 (NCI/ADR-RES),GI50 (MCF7),GI50 (PC-3),GI50 (BT-549)
O=c1c(Sc2c(O)c3ccccc3c3ccccc3c2=O)c(O)c2ccccc2c2ccccc12,29.3 µM (inactive),45.3 µM (inactive),37.2 µM (inactive),> 100 µM (inactive),41.6 µM (inactive),42.3 µM (inactive),25.4 µM (inactive),44.6 µM (inactive),18.7 µM (inactive),25.1 µM (inactive),41.8 µM (inactive),> 100 µM (inactive),63.8 µM (inactive),,,,,,,
C=CCc1cc(OC)c2c(c1)C(O)CC(c1ccc(OC)c(OC)c1)O2 (centres undefined),20.6 µM (inactive),> 100 µM (inactive),> 100 µM (inactive),> 100 µM (inactive),> 100 µM (inactive),78.2 µM (inactive),> 100 µM (inactive),> 100 µM (inactive),> 100 µM (inactive),> 100 µM (inactive),> 100 µM (inactive),> 100 µM (inactive),> 100 µM (inactive),> 100 µM (inactive),,,,,,
CCCCCCCCCCCc1c(O)c(=O)c2c(oc3c(=O)c(CCCCCCCCCCC)c(O)c(=O)c3n2-c2ccc(N(C)C)cc2)c1=O,,23.3 µM (inactive),17.5 µM (inactive),15.6 µM (inactive),20 µM (inactive),20.3 µM (inactive),20.7 µM (inactive),18.8 µM (inactive),21.4 µM (inactive),22.8 µM (inactive),16.5 µM (inactive),19.7 µM (inactive),24 µM (inactive),17.6 µM (inactive),20.7 µM (inactive),,,,,
CC(C)NC1CCCCC2c3ccccc3C12O (centres undefined),,> 100 µM (inactive),> 100 µM (inactive),> 100 µM (inactive),> 100 µM (inactive),,> 100 µM (inactive),,> 100 µM (inactive),> 100 µM (inactive),> 100 µM (inactive),> 100 µM (inactive),> 100 µM (inactive),> 100 µM (inactive),,,,,,
CCN(CC)c1ccc(/N=C2\C=C(Cl)C(=O)c3ncccc32)c(C)c1,2.15 µM (inactive),4.08 µM (inactive),3.08 µM (inactive),4.37 µM (inactive),4.2 µM (inactive),12.4 µM (inactive),2.96 µM (inactive),1.91 µM (inactive),4.88 µM (inactive),3.73 µM (inactive),5.27 µM (inactive),31.3 µM (inactive),4.05 µM (inactive),3.24 µM (inactive),,,,,,
CN1CCN(C2=C(Cl)C(=O)c3c(O)ccc(O)c3C2=O)CC1,0.223 µM (active),0.223 µM (active),0.244 µM (active),0.514 µM (active),0.182 µM (active),0.959 µM (active),0.286 µM (active),0.542 µM (active),1.72 µM (inactive),,0.377 µM (active),5.62 µM (inactive),0.187 µM (active),0.234 µM (active),2.52 µM (inactive),0.35 µM (active),0.632 µM (active),0.24 µM (active),1.73 µM (inactive),0.486 µM (active)
Cc1ccc(S(=O)(=O)N[C@@H](Cc2ccccc2)C(=O)CCl)cc1 [TPCK],13.6 µM (inactive),13.7 µM (inactive),13.9 µM (inactive),17.2 µM (inactive),17.5 µM (inactive),16.5 µM (inactive),16.5 µM (inactive),15.8 µM (inactive),16.2 µM (inactive),,4.93 µM (inactive),24.2 µM (inactive),11.5 µM (inactive),11.6 µM (inactive),17.8 µM (inactive),14.3 µM (inactive),19.9 µM (inactive),10.5 µM (inactive),15.4 µM (inactive),11.7 µM (inactive)
